Patent US4681895A, “Novel guanidinomethylcyclohexanecarboxylic acid compounds and anti-ulcer drug containing the same” (Kanebo, Ltd., priority 1985, dated 1987)

Columns and labels:
[1] = tested on: Male ddY mice; experiment: Test of acute toxity [minimum lethal dose (MLD)]; assay type: in vivo; conditions: oral, mice fasted 17 hours, observed for 7 days
Method: (§1) The same test compounds as used in Experiment 1 were used.
Male ddY mice weighing 20-22 g (4 week old), 5 per group, were fasted for 17 hours and administered orally with each test compound which was suspended in 1% arabic gum aqueous solution.

[2] = tested on: ethanol-induced gastric ulcer; experiment: Activity against ethanol-induced gastric ulcer; assay type: in vivo, Male Sprague-Dawley rats; conditions: Rattus norvegicus; oral, rats, 30 min before 99.5% ethanol 1 ml orally; killed 1 hour after; read-out: ED50, Anti-ethanol-induced ulcer
Method: as §1
The experiment was carried out according to the method of Robert et al. [cf. Gastroenterology, 77, 433 (1979)].
Male Sprague-Dawley rats weighing 180-200 g (8 week old), 6-8 per group, were fasted for 24 hours and administered orally with each test compound which was suspended in 1% arabic gum aqueous solution. After 30 minutes, 99.5% ethanol (as a necrotizing agent) was given orally to the rats in a volume of 1 ml. The animals were killed by ether inhalation 1 hour after receiving of ethanol. The stomach of each rat was removed, inflated by injecting 12 ml of 1 % formalin, and immersed in 1% formalin for 15 minutes. Afterward, the mean ulcer index and inhibitory ratio were calculated by the same method as in Experiment 1, and then the ED50 was calculated by dose-response curve.

[3] = tested on: indomethacin-induced gastric ulcer; experiment: Activity against indomethacin-induced gastric ulcer; assay type: in vivo, Male Sprague-Dawley rats; conditions: Rattus norvegicus; oral, rats, 15 min before indomethacin 30 mg/kg subcutaneously; killed 5 hours after; read-out: ED50, Anti-indomethacin-induced ulcer
Method: as §1
The experiment was carried out by a modified method of that of Okabe et al. [cf. Dig. Dis. Sci., 28, 1034 (1983)].
Male Sprague-Dawley rats weighing 180-200 g (8 week old), 6-8 per group, were fasted for 24 hours and administered orally with each test compound which was suspended in 1% arabic gum aqueous solution. After 15 minutes, indomethacin (in a solution in 3% sodium bicarbonate solution) was given subcutaneously to the rats at a dose of 30 mg/kg. The animals were killed by ether inhalation 5 hours after receiving of indomethacin. The stomach of each rat was removed, inflated by injecting 12 ml of 1% formalin, containing 0.1% pontamine sky blue, and immersed in 1% formalin for 15 minutes. Afterward, the mean ulcer index and inhibitory ratio were calculated by the same method as in Experiment 1, and then ED50 was calculated by dose response curve.

[4] = tested on: stress-induced gastric ulcer; experiment: Activity against stress-induced gastric ulcer; assay type: in vivo, Male Sprague-Dawley rats; conditions: Rattus norvegicus; oral, rats, 15 min before stress cage in 23° C. water bath for 17 hours; read-out: ED50, Anti-stress-induced ulcer
Method: The experiment was carried out by a modified method of that of Takagi and Okabe [cf. Jap. J. Pharmacol., 18, 9 (1968)]. Male Sprague-Dawley rats weighing 180-200 g (8 week old), 6-8 per group, were fasted for 24 hours and administered orally with each test compound which was suspended in 1% arabic gum aqueous solution. After 15 minutes, the animals were placed in a stress cage and immerse vertically to the level of the xiphoid process in a water bath kept at 23° C. for 17 hours. The animals were killed by ether inhalation. The stomach of each rat was removed, inflated by injecting 12 ml of 1% formalin, and immersed in 1% formalin for 15 minutes. The stomach was then incised along the greater curvature and examined for lesions in the glandular portion under a dissecting microscope. The length (mm) of a ulcer was totalled on each animal and it was indicated as the ulcer index. The mean ulcer index (m) in each test compound-treated group was calculated. The control animals received the same procedure without administering of test compound and the mean ulcer index (l) was calculated. Inhibitory ratio of test compound is expressed as follows. Inhibitory ratio (%)=(1-m/l)×100 wherein l is mean ulcer index in control group, and m is mean ulcer index in test compound-treated group. The anti-ulcer activity of test compound (ED50) was calculated by dose-response curve.

[5] = tested on: peptic ulcers; conditions: disclosed in Japanese Patent First Publications; cited from earlier work

## CCOC(=O)c1ccccc1NC(=O)[C@H]1CC[C@H](CNC(=N)N)CC1.Cl.O [A, N-(o-Ethoxycarbonylphenyl)-trans-4-guanidinomethylcyclohexanecarboxamide hydrochloride monohydrate]
[1]
  MLD (acute toxicity): > 3,000 mg/kg
[2]
  ED50: 36 mg/kg
[3]
  ED50: 33 mg/kg
[4]
  ED50: 108 mg/kg

## COC(=O)c1ccccc1NC(=O)[C@H]1CC[C@H](CNC(=N)N)CC1.Cl.O [B, N-(o-Methoxycarbonylphenyl)-trans-4-guanidinomethylcyclohexanecarboxamide hydrochloride monohydrate]
[1]
  MLD (acute toxicity): > 3,000 mg/kg
[2]
  ED50: 42 mg/kg
[3]
  ED50: 40 mg/kg
[4]
  ED50: 118 mg/kg

## Cl.N=C(N)NC[C@H]1CC[C@H](C(=O)Nc2ccccc2C(=O)O)CC1.O [C, N-(o-Carboxyphenyl)-trans-4-guanidinomethylcyclohexanecarboxamide hydrochloride monohydrate]
[1]
  MLD (acute toxicity): > 3,000 mg/kg
[2]
  ED50: 41 mg/kg
[3]
  ED50: 37 mg/kg
[4]
  ED50: 114 mg/kg

## Cl.N=C(N)NC[C@H]1CC[C@H](C(=O)Oc2ccccc2C(=O)OCc2ccccc2)CC1 [X, Trans-4-guanidinomethylcyclohexanecarboxylic acid o-benzyloxycarbonylphenylester hydrochloride, reference compound]
[5]
  anti-ulcer activity, in words: shows an anti-ulcer activity
[1]
  MLD (acute toxicity): > 3,000 mg/kg
[2]
  ED50: 108 mg/kg
[3]
  ED50: 103 mg/kg
[4]
  ED50: 376 mg/kg

## Cl.N=C(N)NC[C@H]1CC[C@H](C(=O)Nc2ccccc2)CC1 [Y, N-Phenyl-trans-4-guanidinomethylcyclohexanecarboxamide hydrochloride, reference compound]
[5]
  anti-ulcer activity, in words: shows an anti-ulcer activity
[1]
  MLD (acute toxicity): < 1,000 mg/kg
[2]
  ED50: 199 mg/kg
[3]
  ED50: 86 mg/kg
[4]
  ED50: 135 mg/kg
